Test results from patent US12378231B2, “Small molecules as monoacylglycerol lipase (MAGL) inhibitors, compositions and use thereof” (APOGEE PHARMACEUTICALS, INC., priority 2023, dated 2025).
Like-named read-outs stand apart in the source and are kept apart here.

Columns and labels:
human recombinant MAGL = human recombinant MAGL (Homo sapiens (Human), UniProt Q99685); assay: In vitro inhibition of human recombinant MAGL activity (Cayman inhibitor screening kit, 4-nitrophenylacetate hydrolysis); type: biochemical
human recombinant MAGL, sequence (Q99685 whole entry): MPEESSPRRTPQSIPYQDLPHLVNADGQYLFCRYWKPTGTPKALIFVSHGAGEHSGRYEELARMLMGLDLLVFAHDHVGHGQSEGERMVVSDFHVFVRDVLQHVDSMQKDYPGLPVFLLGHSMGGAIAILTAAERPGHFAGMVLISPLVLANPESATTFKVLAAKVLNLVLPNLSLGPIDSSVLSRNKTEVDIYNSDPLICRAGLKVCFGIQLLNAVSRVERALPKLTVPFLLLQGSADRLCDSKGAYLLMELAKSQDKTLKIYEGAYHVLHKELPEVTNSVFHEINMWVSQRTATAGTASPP
Excerpt: The inhibitory effect of the synthetic chemicals on activity of human recombinant MAGL was studied using commercial inhibitor screening kit (Cayman Chemical). […] The absorbance of the yellow product can be analyzed using the plate reader. […]

human recombinant FAAH = human recombinant FAAH (Homo sapiens (Human), UniProt O00519); assay: In vitro inhibition of human recombinant FAAH activity (Cayman FAAH inhibitor screening kit, AMC arachidonoyl amide hydrolysis); type: biochemical
human recombinant FAAH, sequence (O00519 whole entry): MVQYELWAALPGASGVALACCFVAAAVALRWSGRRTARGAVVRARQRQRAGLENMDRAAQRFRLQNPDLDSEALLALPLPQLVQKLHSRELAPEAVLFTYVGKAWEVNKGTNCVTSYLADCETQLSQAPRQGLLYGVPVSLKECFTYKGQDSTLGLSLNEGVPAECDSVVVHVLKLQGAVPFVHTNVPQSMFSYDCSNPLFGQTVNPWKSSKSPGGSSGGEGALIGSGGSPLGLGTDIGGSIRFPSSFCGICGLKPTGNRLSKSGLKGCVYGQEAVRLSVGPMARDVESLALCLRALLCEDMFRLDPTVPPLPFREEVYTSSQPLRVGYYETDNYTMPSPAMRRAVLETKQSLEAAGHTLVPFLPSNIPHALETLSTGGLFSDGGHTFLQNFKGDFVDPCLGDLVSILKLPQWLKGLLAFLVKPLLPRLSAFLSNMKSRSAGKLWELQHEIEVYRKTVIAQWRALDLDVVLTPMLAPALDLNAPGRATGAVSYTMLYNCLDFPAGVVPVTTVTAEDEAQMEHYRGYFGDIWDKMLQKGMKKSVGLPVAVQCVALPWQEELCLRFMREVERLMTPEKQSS
Excerpt: In brief, FAAH hydrolyzes AMC arachidonoyl amide resulting in the release of the fluorescent product, while the inhibitor will inhibit the FAAH activity and thus reduce the fluorescent signal.

[1] = human recombinant MAGL, read-out: Inhibition on MAGL activity (IC50)

Row | IC50 (human recombinant MAGL; [1]) [nM] | IC50 (human recombinant FAAH) [nM] | SMILES | IC50 (human recombinant MAGL) [nM]
1 | > 100 | > 50000 | S=C(N1CCN(C(c2ccc3c(c2)COCO3)c2ccc3c(c2)COCO3)CC1)n1cncn1 [Example 21, (4-(bis(4H-benzo[d][1,3]dioxin-6-yl)methyl)piperazin-1-yl)(1H-1,2,4-triazol-1-yl)methanethione] | 
2 | 1 to 10 | 1000 to 10000 | N#Cc1cnn(C(=O)N2CCN(C(c3ccc4c(c3)COCO4)c3ccc4c(c3)COCO4)CC2)c1 [Example 24, 1-(4-(bis(4H-benzo[d][1,3]dioxin-6-yl)methyl)piperazine-1-carbonyl)-1H-pyrazole-4-carbonitrile] | 
3 | 10 to 100 | > 10000 | O=C(N1CCN(C(c2ccc3c(c2)COCO3)c2ccc3c(c2)COCO3)CC1)n1cc(-c2ccccc2)nn1 [Example 25, (4-(bis(4H-benzo[d][1,3]dioxin-6-yl)methyl)piperazin-1-yl)(4-phenyl-1H-1,2,3-triazol-1-yl)methanone] | 
4 | 10 to 100 | 1000 to 10000 | O=C(N1CCN(C(c2ccc3c(c2)COCO3)c2ccc3c(c2)COCO3)CC1)n1ncc(-c2ccccc2)n1 [Example 26, (4-(bis(4H-benzo[d][1,3]dioxin-6-yl)methyl)piperazin-1-yl)(4-phenyl-2H-1,2,3-triazol-2-yl)methanone] | 
5 | 1 to 20 | > 20000 | Cc1ncn(C(=O)N2CCN(C(c3ccc4c(c3)COCO4)c3ccc4c(c3)COCO4)CC2)n1 [Example 28, (4-(bis(4H-benzo[d][1,3]dioxin-6-yl)methyl)piperazin-1-yl)(3-methyl-1H-1,2,4-triazol-1-yl)methanone] | 
6 | > 10000 | > 50000 | CC(C)=NOC(=O)N1CCN(C(c2ccc3c(c2)COCO3)c2ccc3c(c2)COCO3)CC1 [Example 30, propan-2-one O-(4-(bis(4H-benzo[d][1,3]dioxin-6-yl)methyl)piperazine-1-carbonyl) oxime] | 
7 | > 100 | > 50000 | O=C(N1CCN(C(c2ccc3c(c2)COCO3)c2ccc3c(c2)COCO3)CC1)n1ncc2ccccc21 [Example 35, (4-(bis(4H-benzo[d][1,3]dioxin-6-yl)methyl)piperazin-1-yl)(1H-indazol-1-yl)methanone] | 
8 | 10 to 100 | > 10000 | N#Cc1ncn(C(=O)N2CCN(C(c3ccc4c(c3)COCO4)c3ccc4c(c3)COCO4)CC2)n1 [Example 36, 1-(4-(bis(4H-benzo[d][1,3]dioxin-6-yl)methyl)piperazine-1-carbonyl)-1H-1,2,4-triazole-3-carbonitrile] | 
9 | 1 to 10 | > 50000 | O=C(N1CCN(C(c2ccc3c(c2)COCO3)c2ccc3c(c2)COCO3)CC1)n1nnc2ccc(Br)cc21 [Example 37, (4-(bis(4H-benzo[d][1,3]dioxin-6-yl)methyl)piperazin-1-yl)(6-bromo-1H-benzo[d][1,2,3]triazol-1-yl)methanone] | 
10 | 10 to 100 | > 50000 | O=C(N1CCN(C(c2ccc3c(c2)COCO3)c2ccc3c(c2)COCO3)CC1)n1nnc2cc(Br)ccc21 [Example 38, (4-(bis(4H-benzo[d][1,3]dioxin-6-yl)methyl)piperazin-1-yl)(5-bromo-1H-benzo[d][1,2,3]triazol-1-yl)methanone] | 
11 | 1 to 10 | ~50000 | O=C(N1CCN(C(c2ccc3c(c2)COCO3)c2ccc3c(c2)COCO3)CC1)n1nnc2ccc(F)cc21 [Example 39, (4-(bis(4H-benzo[d][1,3]dioxin-6-yl)methyl)piperazin-1-yl)(6-fluoro-1H-benzo[d][1,2,3]triazol-1-yl)methanone] | 
12 | 10 to 100 | 1000 to 20000 | O=C(N1CCN(C(c2ccc3c(c2)COCO3)c2ccc3c(c2)COCO3)CC1)n1nnc2cc(F)ccc21 [Example 40, (4-(bis(4H-benzo[d][1,3]dioxin-6-yl)methyl)piperazin-1-yl)(5-fluoro-1H-benzo[d][1,2,3]triazol-1-yl)methanone] | 
13 | 1 to 10 | > 20000 | O=C(N1CCN(C(c2ccc3c(c2)COCO3)c2ccc3c(c2)COCO3)CC1)n1nnc2c(Cl)cc(C(F)(F)F)cc21 [Example 42, (4-(bis(4H-benzo[d][1,3]dioxin-6-yl)methyl)piperazin-1-yl)(4-chloro-6-(trifluoromethyl)-1H-benzo[d][1,2,3]triazol-1-yl)methanone] | 
14 | > 100 | > 50000 | O=C(Nc1cccnc1)N1CCN(C(c2ccc3c(c2)COCO3)c2ccc3c(c2)COCO3)CC1 [Example 43, 4-(bis(4H-benzo[d][1,3]dioxin-6-yl)methyl)-N-(pyridin-3-yl)piperazine-1-carboxamide] | 
15 | 1 to 10 | > 10000 | O=C(N1CCN(C(c2ccc3c(c2)COCO3)c2ccc3c(c2)COCO3)CC1)n1nnc2ccc(C(F)(F)F)cc21 [Example 44, (4-(bis(4H-benzo[d][1,3]dioxin-6-yl)methyl)piperazin-1-yl)(6-(trifluoromethyl)-1H-benzo[d][1,2,3]triazol-1-yl)methanone] | 
16 | 10 to 100 | > 1000 | O=C(N1CCN(C(c2ccc3c(c2)COCO3)c2ccc3c(c2)COCO3)CC1)n1nnc2cc(C(F)(F)F)ccc21 [Example 45, (4-(bis(4H-benzo[d][1,3]dioxin-6-yl)methyl)piperazin-1-yl)(5-(trifluoromethyl)-1H-benzo[d][1,2,3]triazol-1-yl)methanone] | 
17 | 10 to 100 | > 10000 | O=C(N1CCN(C(c2ccc3c(c2)COCO3)c2ccc3c(c2)COCO3)CC1)n1nnc2cc3c(cc21)OCCO3 [Example 46, (4-(bis(4H-benzo[d][1,3]dioxin-6-yl)methyl)piperazin-1-yl)(6,7-dihydro-1H-[1,4]dioxino[2′,3′:4,5]benzo[1,2-d][1,2,3]triazol-1-yl)methanone] | 
18 | 1 to 10 | > 20000 | N#Cc1ccc2nnn(C(=O)N3CCN(C(c4ccc5c(c4)COCO5)c4ccc5c(c4)COCO5)CC3)c2c1 [Example 48, 1-(4-(bis(4H-benzo[d][1,3]dioxin-6-yl)methyl)piperazine-1-carbonyl)-1H-benzo[d][1,2,3]triazole-6-carbonitrile] | 
19 | 10 to 100 | > 20000 | N#Cc1ccc2c(c1)nnn2C(=O)N1CCN(C(c2ccc3c(c2)COCO3)c2ccc3c(c2)COCO3)CC1 [Example 49, 1-(4-(bis(4H-benzo[d][1,3]dioxin-6-yl)methyl)piperazine-1-carbonyl)-1H-benzo[d][1,2,3]triazole-5-carbonitrile] | 
20 | > 100 | > 50000 | O=C(N1CCN(C(c2ccc3c(c2)COCO3)c2ccc3c(c2)COCO3)CC1)n1nc2ccccn2c1=O [Example 50, 2-(4-(bis(4H-benzo[d][1,3]dioxin-6-yl)methyl)piperazine-1-carbonyl)-[1,2,4]triazolo[4,3-a]pyridin-3(2H)-one] | 
21 | 10 to 100 | > 10000 | N#Cc1ccc2nnn(C(=O)N3CCCN(C(c4ccc5c(c4)COCO5)c4ccc5c(c4)COCO5)CC3)c2c1 [Example 51, 1-(4-(bis(4H-benzo[d][1,3]dioxin-6-yl)methyl)-1,4-diazepane-1-carbonyl)-1H-benzo[d][1,2,3]triazole-6-carbonitrile] | 
22 | > 100 | > 50000 | O=C(C1CCN(C(c2ccc3c(c2)COCO3)c2ccc3c(c2)COCO3)CC1)n1nnc2ccccc21 [Example 52, (1H-benzo[d][1,2,3]triazol-1-yl)(1-(bis(4H-benzo[d][1,3]dioxin-6-yl)methyl)piperidin-4-yl)methanone] | 
23 | > 100 | > 50000 | O=C(OC(C(F)(F)F)C(F)(F)F)C1CCN(C(c2ccc3c(c2)COCO3)c2ccc3c(c2)COCO3)CC1 [Example 53, 1,1,1,3,3,3-hexafluoropropan-2-yl 1-(bis(4H-benzo[d][1,3]dioxin-6-yl)methyl)piperidine-4-carboxylate] | 
24 | > 100 | > 50000 | O=C(Oc1c(F)c(F)c(F)c(F)c1F)C1CCN(C(c2ccc3c(c2)COCO3)c2ccc3c(c2)COCO3)CC1 [Example 54, pentafluorophenyl 1-(bis(4H-benzo[d][1,3]dioxin-6-yl)methyl)piperidine-4-carboxylate] | 

Row | SMILES | IC50 (human recombinant MAGL; [1]) [nM] | IC50 (human recombinant FAAH) [nM] | IC50 (human recombinant MAGL) [nM]
25 | O=C(Oc1ccc([N+](=O)[O-])cc1F)N1CCN(C(c2ccc3c(c2)COCO3)c2ccc3c(c2)COCO3)CC1 [Example 19, 2-fluoro-4-nitrophenyl 4-(bis(4H-benzo[d][1,3]dioxin-6-yl)methyl)piperazine-1-carboxylate] | > 100 | > 50000 | 
26 | O=C(Oc1ccccn1)N1CCN(C(c2ccc3c(c2)COCO3)c2ccc3c(c2)COCO3)CC1 [Example 20, pyridin-2-yl 4-(bis(4H-benzo[d][1,3]dioxin-6-yl)methyl)piperazine-1-carboxylate] | > 100 | > 50000 | 
27 | O=C(On1nnc2ccc(C(F)(F)F)cc21)N1CCN(C(c2ccc3c(c2)COCO3)c2ccc3c(c2)COCO3)CC1 [Example 22, 6-(trifluoromethyl)-1H-benzo[d][1,2,3]triazol-1-yl 4-(bis(4H-benzo[d][1,3]dioxin-6-yl)methyl)piperazine-1-carboxylate] | > 100 | > 50000 | 
28 | O=C(On1nnc2cccnc21)N1CCN(C(c2ccc3c(c2)COCO3)c2ccc3c(c2)COCO3)CC1 [Example 23, 3H-[1,2,3]triazolo[4,5-b]pyridin-3-yl 4-(bis(4H-benzo[d][1,3]dioxin-6-yl)methyl)piperazine-1-carboxylate] | > 100 | > 10000 | 
29 | O=C(On1nnc2ccccc21)N1CCN(C(c2ccc3c(c2)COCO3)c2ccc3c(c2)COCO3)CC1 [Example 27, 1H-benzo[d][1,2,3]triazol-1-yl 4-(bis(4H-benzo[d][1,3]dioxin-6-yl)methyl)piperazine-1-carboxylate] |  | > 10000 | 10 to 100
30 | O=C(Oc1c(F)c(F)c(F)c(F)c1F)N1CCN(C(c2ccc3c(c2)COCO3)c2ccc3c(c2)COCO3)CC1 [Example 29, pentafluorophenyl 4-(bis(4H-benzo[d][1,3]dioxin-6-yl)methyl)piperazine-1-carboxylate] | > 100 | > 50000 | 
